Legend:
[1] = tested on: human prostate carcinoma PC-3 cells; assay: CCK-8 cytotoxic activity assay, PC-3; type: cell-based; settings: CCK-8, 48 h
Description: (§1) Human prostate carcinoma PC-3 cells and human proximal tubular HK-2 cells purchased from Chinese National Collection of Authenticated Cell Cultures were cultured in RPMI 1640 medium containing FBS (10%, Gibco, CA, USA) and Penicillin-Streptomycin (1%, Gibco, CA, USA). The cells were cultured at a concentration of 5% CO2 and a temperature of 37 ℃, and the medium was changed every two days.
(§2) CCK-8 assay was used to evaluate the proliferation and cytotoxicity of Curcusone C and its derivatives. Cells of 100 µL with a concentration of 5000 cells/mL to 8000 cells/mL were inoculated in 96-well plates for culturing 24 h, and the blank well was added with equal volume medium. After cell adhesion, 10 µL Curcusone C solution or its derivatives were added to each well of the experimental groups except the blank well to the final concentration of drug was 1 mM, […] respectively, and 10 µL DMSO (drug solvent) was added to the control well. The liquid was discarded 48 h later, and 100 µL medium and 10 µL CCK-8 reagent (Beyotime, Shanghai, China) were added to each well. After incubation for 0.5 to 1 h, the absorbance valued at 450 nm was measured and the cell inhibition rate or survival rate was calculated. Cell inhibition rate= […].

[2] = tested on: human proximal tubular HK-2 cells; assay: CCK-8 cytotoxic activity assay, HK-2 normal cells; type: cell-based; settings: HK-2, 48 h, CCK-8, 48 h
Description: as §1, §2

PCBP2 protein = PCBP2 protein (Homo sapiens, UniProt Q15366); assay: SPR binding to immobilized PCBP2 (CM5 chip); settings: analyte 31.25–500 µM
Description: The PCBP2 protein was first immobilized on the CM5 microarray using […], and then the analyte was run using a multi-cycle method. Briefly, small molecules were diluted to different concentrations with Running Buffer, and injected into channel Fc1-Fc2 at a flow rate of 30 µl/min. The association period was 60 s, and then dissociated for 90 s. The association and dissociation processed in the Running Buffer.

[3] = tested on: PC-3 subcutaneously transplanted tumor; assay: PC-3 subcutaneously transplanted tumor model in nude mice; type: in vivo, Balb/C nude mice; settings: for tumor weight: last day of administration, control group 2885.5 ± 432.0 mg
Description: (§3) PC-3 cells in logarithmic growth phase were collected and the total number of cells required was calculated. Cells were re-suspended in a suitable volume of PBS and added to matrigel (PBS: matrigel = 1:1(v/v)) at a concentration of 5 × 10^6 cells/mL for subcutaneous inoculation on the right side of Balb/C nude mice. On day 0, 0.1 mL 5 × 10^6 cells/mL cell suspension (PBS: matrigel = 1:1(v/v)) was subcutaneously inoculated on the right neck and back of each nude mouse except the mice of normal group, to establish PC-3 subcutaneously transplanted tumor model. On day 8 after cell inoculation, the tumor grew to an average volume of 140.3 mm^3. The groups were randomly divided into normal group (Normal), control group (Control), methotrexate group (MTX 4.8 mg/kg), low dose group (C 5 mg/kg), medium dose group (C 10 mg/kg) and high dose group (C 20 mg/kg). Except for 3 mice in the normal group, 6 mice in the other groups were administered twice a week via tail vein (BIW). After 2 weeks of dosing, the dose was changed to once a day (QD). After 2 days of QD administration, tail vein injection was changed to intraperitoneal administration, and QD administration was continued for 5 days. Pharmacodynamic activity was evaluated based on tumor inhibition rate (TGITV) and tolerance was evaluated based on animal weight change and death. At the end of the experiment, all the animals were bled under isoflurane anesthesia and the serum was extracted. The heart, liver, spleen, lung and kidney of each nude mouse were collected and fixed in 4% paraformaldehyde or quick-frozen in liquid nitrogen and stored at -80 ℃ for tissue protein extraction.
(§4) Tissue samples were embedded, sectioned, dewaxed, stained, dehydrated and transparent, and sealed with neutral gum. After drying in a ventilated place, observing and recording under a microscope, the sections were stored at room temperature.
Mouse tumor tissues were fixed with 4% PFA and washed with PBS, and TUNEL staining was performed with TUNEL apoptosis detection kit according to manufacturer’s instructions. Cell nucleus were stained with DAPI, slides were rinsed and imaged with fluorescence microscopy, and finally apoptosis was analyzed with image analyzer.

[4] = Tolerance and organ toxicity in tumor-bearing nude mice (body weight, HE staining); type: in vivo
Description: as §3, §4

PCBP2 [5] = assay: Western blot of PCBP2 in PC-3 cells; type: cell-based, human; settings: different concentrations
Description: (§5) The culture medium containing PC-3 cells was discarded, lysis buffer was added, and the cells were collected with a scraper. The sample is then transferred to a centrifuge tube and the cells are fully lysed. Centrifuge the tube at 12,000 g and 4 ℃ for 10 min. After taking the supernatant, mix with the protein: protein loading buffer (v/v) = 5:1 ratio, and boil at 95 ℃ for 10 min to fully denaturate the protein. BCA protein concentration assay kit (Beyotime, China) was used to quantify the protein of experimental samples. Equal amounts of protein (30 µg) were loaded onto 7.5-12.5% SDS-PAGE gel. After adding the sample, the target protein was separated at 140 V constant pressure and was transferred under the condition of 250 mA constant current and the highest voltage. The transferred PVDF membrane (Thermo Fisher Scientific, MA, USA) was sealed in 5% skim milk (BIOFRox, Germany) for 2 h. The membrane was incubated in the antibody diluent of the corresponding protein at 4 ℃ overnight in a shaker and washed with TBST (Gibco, USA) for three times. Then it was placed in secondary antibody diluent for incubating 1.5 h at 4 ℃ in a shaker and washed again for three times. Finally, appropriate amount of ECL luminescent solution was taken to infiltrate PVDF membrane for development, and the strip was exposed and recorded.

[6] = tested on: Bax, Bcl-2, caspase-3 and PARP proteins in PC-3 cells; assay: Western blot of mitochondrial apoptosis pathway proteins in PC-3 cells; type: cell-based, human; settings: increasing concentration
Description: as §5

PCBP2 [7] = assay: DARTS (pronase digestion of PCBP2 in PC-3 protein extract); type: binding, human; settings: 100 µM
Description: PC-3 cells protein was extracted, and the protein concentration was adjusted to 5 mg/mL and was packed into 99 µL/tube. Then, 10 mM and 5 mM Curcusone C solution of 1 µL was added to protein mixture of 99 µL and gently shaken at room temperature for 1 h. After the compounds were completely incubated, the samples were divided into one part every 20 µL, and 2 µL pronase solution with a certain concentration was added. The control group was added with 2 µL TNC buffer and incubated at room temperature for 30 min to ensure the same digestion time in each group. Digestion was terminated with 20X protease inhibitor complex and incubated on ice for 10 min. Finally, 6 µL 5X protein loading buffer was added to each sample and boiled at 100 ℃ for 10 min to fully denaturate the protein. The samples were centrifuged at 1100 g and 4 ℃ for 1 min and were performed western blot.

[8] = tested on: PCBP2, FHL3, TGF-β1, phosphorylated Smad2 and phosphorylated Smad7; assay: Immunohistochemistry of tumor tissues of nude mice; type: in vivo, Balb/C nude mice
Description: Paraffin sections underwent successively dewaxing to water, antigen repair, blocking of endogenous peroxidase, serum blocking, primary antibody incubation, secondary antibody reaction, DAB color development, counterstaining of nuclei, dehydration and sealing, image acquisition and analysis, and microscopic examination.

Sequence of PCBP2 protein (Q15366 whole entry): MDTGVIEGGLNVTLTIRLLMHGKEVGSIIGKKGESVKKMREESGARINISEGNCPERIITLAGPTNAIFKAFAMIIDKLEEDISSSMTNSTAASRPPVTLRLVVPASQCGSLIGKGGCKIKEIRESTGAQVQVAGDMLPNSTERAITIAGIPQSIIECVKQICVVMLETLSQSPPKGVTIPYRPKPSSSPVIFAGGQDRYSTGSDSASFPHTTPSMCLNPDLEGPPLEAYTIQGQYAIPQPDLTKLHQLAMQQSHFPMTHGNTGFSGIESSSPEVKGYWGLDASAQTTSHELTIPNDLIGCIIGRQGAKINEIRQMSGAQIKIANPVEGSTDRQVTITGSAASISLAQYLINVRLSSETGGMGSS

In the case of C=C1CC[C@H](C(=C)C)[C@H]2C=C(C)C(=O)C3=C(C(=O)[C@](C)(O)C3)[C@H]12 [Curcusone C], the IC50 ([1]; PC-3, 48 h) is reported as ~3.24 µM, the IC50 [2] is reported as > 20 µM and the Kd (PCBP2 protein) is reported as 3150 µM. The “TUNEL apoptotic signal in tumor tissue” value ([3]; 5 mg/kg) was “no apoptotic cell signal”, the tumor inhibition rate ([3]; 5 mg/kg) was 18% and the tumor weight ([3]; 5 mg/kg) was 2356.7 ± 445.7 mg. The “TUNEL apoptotic signal in tumor tissue” value ([3]; 10 mg/kg) was “red marker signal”, the tumor inhibition rate ([3]; 10 mg/kg) was 33% and the tumor weight ([3]; 10 mg/kg) was 1925.6 ± 242.1 mg. The “HE staining of tumor tissue” value ([3]; 20 mg/kg) was “nuclear pyknosis and lysis”, the “TUNEL apoptotic signal in tumor tissue” value ([3]; 20 mg/kg) was “most obvious apoptotic signal” and the tumor inhibition rate ([3]; 20 mg/kg) was “about 39%”. The tumor weight ([3]; 20 mg/kg) was 1759.6 ± 448.7 mg, the “HE staining of lung tissue” value ([4]; 20 mg/kg) was “no interstitial thickening of lung tissue” and the “body weight of nude mice” value ([4]; 20 mg/kg) was “weight loss due to intolerance at the initial stage of drug administration”. The “HE staining of renal tissue” value ([4]; after administration of Curcusone C) was “no obvious abnormality”, the “HE staining of heart, liver, spleen, lung and kidney” value ([4]; compared with the normal group) was “no significant changes” and the “relative content of PCBP2 in PC-3 cells” value (PCBP2 [5]) was “decreased with the increase of drug concentration”. The “level of Bcl-2 in PC-3 cells” value [6] was “decreased gradually”, the “relative expression levels of Bax, cleaved caspase-3 and cleaved PARP in PC-3 cells” value [6] was “increased gradually” and the “amount of enzymolysis by pronase of PCBP2” value (PCBP2 [7]) was “lower than that of control group”. For the same molecule, the “changes of TGF-β1, P-Smad2 and P-smad7 proteins in tumor tissues” value ([8]; IHC) was “downward trend”, the “content of FHL3 protein in tumor tissues” value ([8]; IHC, 20 mg/kg) was “higher than that in Control group” and the “expression of PCBP2 protein in tumor tissues” value ([8]; IHC, 5, 10, 20 mg/kg) was “decreased with the increase of drug concentration”.
In the case of C=C1CC[C@H](C(=C)C)C2C=C(C)C(=O)C3=C(C(=O)[C@](C)(Cl)C3)C12 (stereo partly shown) [Derivative C-1], the IC50 ([1]; PC-3, 48 h) is reported as 3.74 ± 0.4 µM.
With C=C(C)[C@H]1CCC(O)(CCl)C2C3=C(C[C@@](C)(O)C3=O)C(=O)C(C)=CC21 (stereo partly shown) [Derivative C-2] the IC50 ([1]; PC-3, 48 h) was 6.4 ± 0.38 µM.
For C=C(C)[C@H]1CCC(O)(CI)C2C3=C(C[C@@](C)(O)C3=O)C(=O)C(C)=CC21 (stereo partly shown) [Derivative C-3], the IC50 ([1]; PC-3, 48 h) was 10.3 ± 0.58 µM.
C=C(C=O)[C@H]1CCC(O)(CCl)C2C3=C(C[C@@](C)(O)C3=O)C(=O)C(C)=CC21 (stereo partly shown) [Derivative C-4] showed an IC50 ([1]; PC-3, 48 h) of 2.35 ± 0.37 µM.
With C=C(C)C(=O)OCC(=C)[C@H]1CCC(O)(CCl)C2C3=C(C[C@@](C)(O)C3=O)C(=O)C(C)=CC21 (stereo partly shown) [Derivative C-5] the IC50 ([1]; PC-3, 48 h) was 2.05 ± 0.96 µM.
C=C(COC(=O)/C=C/C=C/C)[C@H]1CCC(O)(CCl)C2C3=C(C[C@@](C)(O)C3=O)C(=O)C(C)=CC21 (stereo partly shown) [Derivative C-6] gave an IC50 ([1]; PC-3, 48 h) of 1.81 ± 0.18 µM.
C=C(CO)[C@H]1CCC(O)(CCl)C2C3=C(C[C@@](C)(O)C3=O)C(=O)C(C)=CC21 (stereo partly shown) [Derivative C-7] showed an IC50 ([1]; PC-3, 48 h) of 16.3 ± 3.25 µM.
C=C(COC(C)=O)[C@H]1CCC(O)(CCl)C2C3=C(C[C@@](C)(O)C3=O)C(=O)C(C)=CC21 (stereo partly shown) [Derivative C-8] showed an IC50 ([1]; PC-3, 48 h) of 9.49 ± 0.17 µM.
In the case of C=C(COC(=O)CC(=O)OC)[C@H]1CCC(O)(CCl)C2C3=C(C[C@@](C)(O)C3=O)C(=O)C(C)=CC21 (stereo partly shown) [Derivative C-9], the IC50 ([1]; PC-3, 48 h) is reported as 5.97 ± 1.16 µM.
With C=C(C)[C@@H](CCC(=O)COC(C)=O)c1cc2c(c(=O)c(C)c1)C[C@@](C)(O)C2=O [Derivative C-10] the IC50 ([1]; PC-3, 48 h) was > 20 µM.
For C=C(C)[C@@H](CCC(=O)CN(CC)CC)c1cc2c(c(=O)c(C)c1)C[C@@](C)(O)C2=O [Derivative C-11], the IC50 ([1]; PC-3, 48 h) was > 20 µM.
In the case of C=C(COc1ccc([N+](=O)[O-])cc1)[C@@H](CCC(=O)COc1ccc([N+](=O)[O-])cc1)c1cc2c(c(=O)c(C)c1)C[C@@](C)(O)C2=O [Derivative C-12], the IC50 [1] is reported as > 20 µM.
For C=C(CCl)[C@H]1CCC(O)(CCl)C2C3=C(C[C@@](C)(O)C3=O)C(=O)C(C)=CC21 (stereo partly shown) [Derivative C-13], the IC50 [1] was 2.96 ± 0.37 µM.
With CN(Cc1cnc2nc(N)nc(N)c2n1)c1ccc(C(=O)N[C@@H](CCC(=O)O)C(=O)O)cc1 [Methotrexate, reference compound] the IC50 ([1]; PC-3, 48 h) was 0.89 ± 0.22 µM, the IC50 [2] was ~3.21 µM and the “HE staining of tumor tissue” value ([3]; 4.8 mg/kg) was “nuclear pyknosis and lysis”. The “TUNEL apoptotic signal in tumor tissue” value ([3]; 4.8 mg/kg) was “most obvious apoptotic signal”, the tumor inhibition rate ([3]; 4.8 mg/kg) was 48% and the tumor weight ([3]; 4.8 mg/kg) was 1503.4 ± 243.0 mg. The “HE staining of kidney (glomerulus in the renal cortex)” value ([4]; 4.8 mg/kg) was “severe pyknosis” and the “HE staining of lung tissue” value ([4]; 4.8 mg/kg) was “significant pulmonary interstitial thickening and pneumonic pathological manifestations”.
For C#CCCCC(=O)O[C@]1(C)CC2=C(C1=O)C1C(=C)CC[C@H](C(=C)C)C1C=C(C)C2=O (stereo partly shown) [Positive probes], the IC50 ([1]; PC-3, 48 h) was 7.34 ± 0.2 µM.

Reference: paper PMC10563230, “Unveiling poly(rC)-binding protein 2 as the target protein for curcusone C against prostate cancer: mechanism validation through click chemistry-activity based proteomics profiling approach” (BMC Cancer, 2023)
